# Measurements published in ChEMBL document CHEMBL1777689 (Bioorg Med Chem Lett, 2011).
# Activity calls are given as the source filed them. The rule behind the calls is not given here.
# What was measured:
# CYP2C9 = CYP2C9 (Homo sapiens, UniProt P11712); assay: Inhibition of CYP2C9 at 3 uM; format: ADME
# CYP2D6 = CYP2D6 (Homo sapiens, UniProt P10635); assay: Inhibition of CYP2D6 at 3 uM; format: ADME
# CYP3A4 = CYP3A4 (Homo sapiens, UniProt P08684); assay: Inhibition of CYP3A4 at 3 uM; format: ADME
# Sequence of CYP3A4 (P08684 whole entry): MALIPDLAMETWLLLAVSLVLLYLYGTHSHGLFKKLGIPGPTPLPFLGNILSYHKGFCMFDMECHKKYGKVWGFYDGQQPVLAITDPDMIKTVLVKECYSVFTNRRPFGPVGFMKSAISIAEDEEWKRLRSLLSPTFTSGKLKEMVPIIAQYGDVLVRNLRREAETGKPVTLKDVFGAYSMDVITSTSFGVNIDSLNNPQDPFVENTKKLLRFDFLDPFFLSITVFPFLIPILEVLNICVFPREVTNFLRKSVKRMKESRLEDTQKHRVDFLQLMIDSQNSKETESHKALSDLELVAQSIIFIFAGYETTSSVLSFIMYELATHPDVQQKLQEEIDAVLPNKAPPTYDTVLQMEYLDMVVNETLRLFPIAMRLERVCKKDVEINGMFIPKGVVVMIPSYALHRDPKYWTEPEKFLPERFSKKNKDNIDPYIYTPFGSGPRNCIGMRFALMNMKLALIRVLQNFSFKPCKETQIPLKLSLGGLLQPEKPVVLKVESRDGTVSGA
# [1] = Aqueous solubility of the compound; format: physicochemical; settings: buffer
# [2] = Half life in human liver microsomes; format: ADME, Microsome
# [3] = Half life in mouse liver microsomes; format: ADME, Microsome
# [4] = Half life in rat liver microsomes; format: ADME, Microsome
# [5] = biological target: Heat shock protein HSP 90-alpha (Homo sapiens, UniProt P07900)
# [6] = biological target: Voltage-gated inwardly rectifying potassium channel KCNH2 (Homo sapiens, UniProt Q12809)
# Sequence of Voltage-gated inwardly rectifying potassium channel KCNH2 (Q12809 whole entry): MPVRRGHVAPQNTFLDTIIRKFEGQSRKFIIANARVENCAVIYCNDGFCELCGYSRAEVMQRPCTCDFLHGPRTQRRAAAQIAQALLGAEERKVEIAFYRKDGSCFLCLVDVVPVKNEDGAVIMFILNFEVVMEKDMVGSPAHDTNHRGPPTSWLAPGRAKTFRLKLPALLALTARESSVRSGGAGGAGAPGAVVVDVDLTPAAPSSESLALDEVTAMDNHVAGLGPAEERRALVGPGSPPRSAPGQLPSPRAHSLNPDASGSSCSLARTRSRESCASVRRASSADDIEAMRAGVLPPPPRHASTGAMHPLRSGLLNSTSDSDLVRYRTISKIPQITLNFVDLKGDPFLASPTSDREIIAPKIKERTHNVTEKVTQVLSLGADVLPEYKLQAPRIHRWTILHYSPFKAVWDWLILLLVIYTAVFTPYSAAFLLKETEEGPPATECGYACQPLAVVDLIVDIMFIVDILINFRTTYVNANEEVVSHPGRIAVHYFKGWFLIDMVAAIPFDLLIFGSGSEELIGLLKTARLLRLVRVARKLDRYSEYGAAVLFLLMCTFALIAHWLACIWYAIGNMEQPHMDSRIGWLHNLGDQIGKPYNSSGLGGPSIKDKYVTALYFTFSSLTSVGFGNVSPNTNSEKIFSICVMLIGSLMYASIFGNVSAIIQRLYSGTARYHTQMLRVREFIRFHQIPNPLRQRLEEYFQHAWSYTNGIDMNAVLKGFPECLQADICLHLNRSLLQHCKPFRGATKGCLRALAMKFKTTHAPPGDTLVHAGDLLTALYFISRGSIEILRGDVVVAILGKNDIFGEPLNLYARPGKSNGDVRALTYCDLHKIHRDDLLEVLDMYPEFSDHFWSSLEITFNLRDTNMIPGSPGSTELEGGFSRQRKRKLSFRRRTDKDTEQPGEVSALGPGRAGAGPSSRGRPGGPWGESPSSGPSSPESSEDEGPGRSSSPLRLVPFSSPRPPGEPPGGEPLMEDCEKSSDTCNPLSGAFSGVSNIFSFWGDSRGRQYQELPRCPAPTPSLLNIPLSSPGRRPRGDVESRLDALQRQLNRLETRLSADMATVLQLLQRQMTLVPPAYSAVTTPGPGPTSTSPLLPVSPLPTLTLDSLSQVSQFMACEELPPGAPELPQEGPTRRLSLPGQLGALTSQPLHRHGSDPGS
# [7] = biological target: Tyrosine-protein kinase Fyn (Homo sapiens, UniProt P06241); assay: Inhibition of FYN
# Sequence of Tyrosine-protein kinase Fyn (P06241 whole entry): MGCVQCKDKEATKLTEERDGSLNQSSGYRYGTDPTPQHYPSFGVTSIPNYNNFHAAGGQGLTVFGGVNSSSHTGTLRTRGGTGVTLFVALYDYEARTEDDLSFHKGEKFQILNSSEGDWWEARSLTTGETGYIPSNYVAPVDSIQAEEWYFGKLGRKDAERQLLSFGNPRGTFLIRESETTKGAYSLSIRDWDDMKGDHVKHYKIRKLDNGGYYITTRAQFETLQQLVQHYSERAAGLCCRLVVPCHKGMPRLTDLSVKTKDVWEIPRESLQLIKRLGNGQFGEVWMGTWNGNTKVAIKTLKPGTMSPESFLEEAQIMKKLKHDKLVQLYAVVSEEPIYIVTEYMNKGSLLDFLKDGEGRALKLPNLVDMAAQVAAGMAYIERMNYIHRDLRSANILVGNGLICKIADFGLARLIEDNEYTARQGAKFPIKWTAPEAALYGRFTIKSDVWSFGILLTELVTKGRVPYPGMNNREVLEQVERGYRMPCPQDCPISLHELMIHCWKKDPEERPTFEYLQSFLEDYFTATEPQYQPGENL
# [8] = biological target: Proto-oncogene tyrosine-protein kinase Src (Homo sapiens, UniProt P12931); assay: Inhibition of SRC-related membrane-associated tyrosine kinase
# Sequence of Proto-oncogene tyrosine-protein kinase Src (P12931 2-536 limits assumed): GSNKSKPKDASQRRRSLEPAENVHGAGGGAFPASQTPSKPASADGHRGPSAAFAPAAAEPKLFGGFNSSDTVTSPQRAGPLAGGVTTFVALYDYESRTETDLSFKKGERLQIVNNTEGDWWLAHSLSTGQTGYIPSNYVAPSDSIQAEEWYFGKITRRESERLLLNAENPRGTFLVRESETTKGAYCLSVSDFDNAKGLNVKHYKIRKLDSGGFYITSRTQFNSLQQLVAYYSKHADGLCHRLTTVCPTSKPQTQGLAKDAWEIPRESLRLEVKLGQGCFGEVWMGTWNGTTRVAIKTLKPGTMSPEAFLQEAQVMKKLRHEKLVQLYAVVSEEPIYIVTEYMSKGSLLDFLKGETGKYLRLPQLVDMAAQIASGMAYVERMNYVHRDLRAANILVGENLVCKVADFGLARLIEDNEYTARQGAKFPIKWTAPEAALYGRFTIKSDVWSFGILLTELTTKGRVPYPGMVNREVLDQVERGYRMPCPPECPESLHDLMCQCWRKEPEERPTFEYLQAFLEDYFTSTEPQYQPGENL
# [9] = Half life in CD-1 mouse at 2 mg/kg, iv; format: ADME, organism-based; set-up: dose 2 mg/kg, route intravenous; settings: in vivo
# [10] = AUC (0 to infinity) in CD-1 mouse at 2 mg/kg, iv; format: ADME, organism-based; set-up: time infinity, dose 2 mg/kg, route intravenous; settings: plasma
# [11] = Plasma clearance in CD-1 mouse at 2 mg/kg, iv; format: ADME, organism-based; set-up: dose 2 mg/kg, route intravenous
# [12] = Volume of distribution at steady state in CD-1 mouse at 2 mg/kg, iv; format: ADME, organism-based; set-up: dose 2 mg/kg, route intravenous; settings: in vivo, read-out: Vdss
# [13] = Half life in CD-1 mouse at 10 mg/kg, po; format: ADME, organism-based; set-up: dose 10 mg/kg, route oral; settings: in vivo
# [14] = AUC (0 to infinity) in CD-1 mouse at 10 mg/kg, po; format: ADME, organism-based; set-up: time infinity, dose 10 mg/kg, route oral; settings: plasma
# U-87MG ATCC [15] = settings: Homo sapiens
# U-87MG ATCC [16] = settings: Homo sapiens; remark: listed apart in the source
# U-87MG ATCC [17] = settings: Homo sapiens; remark: listed apart in the source
# [18] = Bioavailability in CD-1 mouse at 10 mg/kg, po; settings: in vivo
# 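For EC50 in this document: antiproliferative effect on human HCT116 cells, read out by luminescence.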
# Sequence of CYP2D6 (P10635 whole entry): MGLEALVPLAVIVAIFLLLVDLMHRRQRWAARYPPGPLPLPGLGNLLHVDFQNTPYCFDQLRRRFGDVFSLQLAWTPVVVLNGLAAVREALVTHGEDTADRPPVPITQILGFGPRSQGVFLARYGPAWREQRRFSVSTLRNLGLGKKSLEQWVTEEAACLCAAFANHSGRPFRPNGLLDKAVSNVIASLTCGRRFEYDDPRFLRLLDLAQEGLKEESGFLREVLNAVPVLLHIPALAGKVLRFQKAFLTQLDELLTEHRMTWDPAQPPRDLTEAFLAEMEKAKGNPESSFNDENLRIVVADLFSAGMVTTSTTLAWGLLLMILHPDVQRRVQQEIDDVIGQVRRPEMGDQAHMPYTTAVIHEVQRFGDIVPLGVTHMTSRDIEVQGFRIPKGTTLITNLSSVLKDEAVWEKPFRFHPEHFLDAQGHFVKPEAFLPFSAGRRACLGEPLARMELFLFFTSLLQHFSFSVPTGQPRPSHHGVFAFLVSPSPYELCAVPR
# Sequence of CYP2C9 (P11712 whole entry): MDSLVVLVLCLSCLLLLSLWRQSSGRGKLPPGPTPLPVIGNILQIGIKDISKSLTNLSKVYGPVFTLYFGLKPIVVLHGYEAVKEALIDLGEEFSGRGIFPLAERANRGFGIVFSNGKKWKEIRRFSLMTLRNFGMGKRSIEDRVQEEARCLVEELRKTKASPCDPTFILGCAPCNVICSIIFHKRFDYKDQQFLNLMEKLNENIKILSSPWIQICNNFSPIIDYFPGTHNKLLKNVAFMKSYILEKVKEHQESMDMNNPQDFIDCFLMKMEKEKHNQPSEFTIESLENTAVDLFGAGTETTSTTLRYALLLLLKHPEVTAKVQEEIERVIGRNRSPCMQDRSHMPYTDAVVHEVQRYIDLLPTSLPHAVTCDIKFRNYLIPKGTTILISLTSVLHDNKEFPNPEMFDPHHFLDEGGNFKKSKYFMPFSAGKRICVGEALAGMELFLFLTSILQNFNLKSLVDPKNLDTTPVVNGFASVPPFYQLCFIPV
SMILES,inhibition at 3 µM (CYP2C9),inhibition at 3 µM (CYP2D6),inhibition at 3 µM (CYP3A4),solubility ([1]; read-out: solubility),half-life [2],half-life [3],half-life [4],IC50 [5],IC50 [6],EC50 (HCT-116),further results
Cc1c2c(n3c1CCCN1CCOC[C@@H]1CNc1cc-3ccc1C(N)=O)CC(C)(C)CC2=O,39%,0%,71%,29 µg/mL,3 min,7 min,3 min,96 nM,12500 nM,34 nM,–
Cc1c2c(n3c1CCCN1CCC[C@H]1CNc1cc-3ccc1C(N)=O)CC(C)(C)CC2=O,–,–,–,–,–,–,–,–,–,1140 nM,solubility [1]: 66 µg/mL
Cc1c2c(n3c1CCCN1C[C@H](O)C[C@@H]1CNc1cc-3ccc1C(N)=O)CC(C)(C)CC2=O,9%,33%,64%,67 µg/mL,3 min,7 min,10 min,153 nM,–,192 nM,–
Cc1c2c(n3c1CCCN1CCCC[C@@H]1CNc1cc-3ccc1C(N)=O)CC(C)(C)CC2=O,0%,16%,77%,52 µg/mL,8 min,27 min,3 min,126 nM,–,32 nM,–
Cc1c2c(n3c1CCCN1CCC[C@@H](C1)Nc1cc-3ccc1C(N)=O)CC(C)(C)CC2=O,74%,12%,76%,16 µg/mL,2 min,3 min,8 min,78 nM,3400 nM,39 nM,–
CC(=O)N[C@H]1C[C@@H]2CNc3cc(ccc3C(N)=O)-n3c(c(C)c4c3CC(C)(C)CC4=O)CCCN2C1,–,–,–,–,–,–,–,634 nM,–,2560 nM,–
Cc1c2c(n3c1CCC(=O)N1CCC[C@@H]1CNc1cc-3ccc1C(N)=O)CC(C)(C)CC2=O,–,–,–,–,–,–,–,188 nM,–,310 nM,–
Cc1c2c(n3c1CCCN1CCCC[C@@H]1[C@H](C)Nc1cc-3ccc1C(N)=O)CC(C)(C)CC2=O,4%,4%,55%,35 µg/mL,3 min,6 min,7 min,170 nM,1500 nM,67 nM,–
Cc1c2c(n3c1CCCN1CCNC[C@H]1CNc1cc-3ccc1C(N)=O)CC(C)(C)CC2=O,12%,3%,1%,> 100 µg/mL,> 30 min,> 30 min,> 30 min,3320 nM,–,1850 nM,–
Cc1c2c(n3c1CCCN1C[C@@H](F)C[C@@H]1CNc1cc-3ccc1C(N)=O)CC(C)(C)CC2=O,46%,9%,77%,3 µg/mL,4 min,5 min,2 min,61 nM,16400 nM,60 nM,–
Cc1c2c(n3c1CCN1CCC[C@@H]1CNc1cc-3ccc1C(N)=O)CC(C)(C)CC2=O,0%,6%,32%,6 µg/mL,–,–,6 min,883 nM,–,460 nM,–
Cc1c2c(n3c1CCCCN1CCC[C@@H]1CNc1cc-3ccc1C(N)=O)CC(C)(C)CC2=O,0%,2%,67%,> 100 µg/mL,5 min,11 min,8 min,301 nM,–,232 nM,–
Cc1c2c(n3c1CCCNC(=O)[C@H](C)Nc1cc-3ccc1C(N)=O)CC(C)(C)CC2=O,23%,5%,6%,> 100 µg/mL,4 min,> 30 min,> 30 min,82 nM,–,56 nM,–
Cc1c2c(n3c1CCCN1CC[C@H](CNc4cc-3ccc4C(N)=O)C1)CC(C)(C)CC2=O,2%,0%,53%,> 100 µg/mL,23 min,> 30 min,21 min,201 nM,440 nM,100 nM,–
Cc1c2c(n3c1CCCN1CC[C@@H](C1)Nc1cc-3ccc1C(N)=O)CC(C)(C)CC2=O,25%,23%,70%,49 µg/mL,–,–,5 min,982 nM,–,671 nM,–
Cc1c2c(n3c1CCCN1CCC[C@@H]1CNc1cc-3ccc1C(N)=O)CC(C)(C)CC2=O,6%,–,–,2320 µg/mL,–,–,6 min,–,2600 nM,–,IC50 [7]: 22000 nM; IC50 [8]: > 50000 nM; half-life [9]: 276 min; AUC(0-inf) [10]: 1740 ng·h/mL; clearance [11]: 19 mL/min/kg; Vd [12]: 5.3 L/kg; half-life [13]: 312 min; AUC(0-inf) [14]: 6460 ng·h/mL; inhibition (U-87MG ATCC [15]): Active; inhibition (U-87MG ATCC [16]): Active; inhibition (U-87MG ATCC [17]): Active; bioavailability [18]: 74%
Cc1c2c(n3c1CCCN1C[C@@H](N4CCCC4)C[C@@H]1CNc1cc-3ccc1C(N)=O)CC(C)(C)CC2=O,3%,69%,34%,71 µg/mL,–,–,5 min,496 nM,–,2430 nM,–
CC(=O)N1CCN2CCCc3c(C)c4c(n3-c3ccc(C(N)=O)c(c3)NC[C@H]2C1)CC(C)(C)CC4=O,15%,4%,34%,> 100 µg/mL,14 min,5 min,3 min,106 nM,24400 nM,140 nM,–
Cc1c2c(n3c1CCCN1CC[C@@H](CNc4cc-3ccc4C(N)=O)C1)CC(C)(C)CC2=O,–,–,–,–,–,–,–,> 5000 nM,–,2970 nM,–
